In general, IC50 refers to the concentration needed to halve the response being measured.

The values that follow come from US10144706B2 (BRISTOL-MYERS SQUIBB COMPANY, priority 2016, dated 2018).

Structures are written as SMILES.

T1 sequence (Q9NZQ7 with tags, fused parts or gaps): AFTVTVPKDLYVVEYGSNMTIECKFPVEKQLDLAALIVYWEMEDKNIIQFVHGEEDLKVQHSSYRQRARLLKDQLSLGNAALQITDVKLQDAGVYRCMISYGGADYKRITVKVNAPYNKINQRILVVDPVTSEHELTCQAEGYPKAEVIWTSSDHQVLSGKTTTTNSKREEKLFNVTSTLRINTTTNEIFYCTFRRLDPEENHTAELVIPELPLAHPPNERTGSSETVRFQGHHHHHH

One experiment concerns the target T1, PD-1/PD-L1 interaction (PD-1-Ig / PD-L1-His) (Homo sapiens, UniProt Q9NZQ7).
T1 construct: hPDL1(18-239)-TVMV-His; TVMV protease site linker (C); made in house; host or cells: HEK293T
Description: PD-1/PD-L1 Homogenous Time-Resolved Fluorescence (HTRF) binding assay. Conditions: IC50 range class; PD-L1-His 10 nM, PD-1-Ig 20 nM; read-out: Range or IC50. An outline of the steps:
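Human PD-L1-His (10 nM final) was pre-incubated with inhibitor for 15 min, then PD-1-Ig (20 nM final) was added for a further 15 min in dPBS with 0.1% BSA and 0.05% Tween-20. Binding was detected by HTRF using Eu-cryptate anti-Ig (1 nM) and APC anti-His (20 nM).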
Regarding `Cc1c(OCCCN(CCc2ccccn2)C[C@H](O)CO)cccc1-c1cccc(OCCCN(CCc2ccccn2)C[C@H](O)CO)c1C` [Example 2101, (2S,2′S)-3,3′-((((2,2′-dimethyl-[1,1′-biphenyl]-3,3′-diyl)bis(oxy))bis(propane-3,1-diyl))bis((2-(pyridin-2-yl)ethyl)azanediyl))bis(propane-1,2-diol)], the IC50 was 20.1 to 90 nM. In the case of `Cc1c(OCCCN(CCc2cccnc2)C[C@H](O)CO)cccc1-c1cccc(OCCCN(CCc2cccnc2)C[C@H](O)CO)c1C` [Example 2102, (2S,2′S)-3,3′-((((2,2′-dimethyl-[1,1′-biphenyl]-3,3′-diyl)bis(oxy))bis(propane-3,1-diyl))bis((2-(pyridin-3-yl)ethyl)azanediyl))bis(propane-1,2-diol)], the IC50 lay in the range of 20.1 to 90 nM.

Consider `Cc1c(OCCCNC[C@H](O)CO)cccc1-c1cccc(OCCCN(CCc2cccnc2)C[C@H](O)CO)c1C` [Example 2103, (S)-3-((3-((3′-(3-(((S)-2,3-dihydroxypropyl)(2-(pyridin-3-yl)ethyl)amino)propoxy)-2,2′-dimethyl-[1,1′-biphenyl]-3-yl)oxy)propyl)amino)propane-1,2-diol], for which the IC50 lay in the range of 0.04 to 20 nM. On to `Cc1c(OCCCN2CCCCC2)cccc1-c1cccc(OCCCN2CC[C@@H](O)C2)c1C` [Example 2105, (R)-1-(3-((2,2′-dimethyl-3′-(3-(piperidin-1-yl)propoxy)-[1,1′-biphenyl]-3-yl)oxy)propyl)pyrrolidin-3-ol], for which the IC50 fell in the range of 20.1 to 90 nM. The same measure, in the same setting: the same measure for `Cc1c(OCCCN2CCC(CO)CC2)cccc1-c1cccc(OCCCN2CC[C@@H](O)C2)c1C` [Example 2106, (R)-1-(3-((3′-(3-(4-(hydroxymethyl)piperidin-1-yl)propoxy)-2,2′-dimethyl-[1,1′-biphenyl]-3-yl)oxy)propyl)pyrrolidin-3-ol]: 20.1 to 90 nM. For `CC(=O)NC1CCN(CCCOc2cccc(-c3cccc(OCCCN4CC[C@@H](O)C4)c3C)c2C)C1` (stereo partly drawn) [Example 2107, N-(1-(3-((3′-(3-((R)-3-hydroxypyrrolidin-1-yl)propoxy)-2,2′-dimethyl-[1,1′-biphenyl]-3-yl)oxy)propyl)pyrrolidin-3-yl)acetamide], the IC50 lay within 20.1 to 90 nM. Take `Cc1c(OCCCN2CCN(c3ccccn3)CC2)cccc1-c1cccc(OCCCN2CC[C@@H](O)C2)c1C` [Example 2108, (R)-1-(3-((2,2′-dimethyl-3′-(3-(4-(pyridin-2-yl)piperazin-1-yl)propoxy)-[1,1′-biphenyl]-3-yl)oxy)propyl)pyrrolidin-3-ol]: the IC50 lay in the range of 90.1 to 1000 nM. Same read-out and setting: the same measure for `Cc1c(OCCCN2CCN(CC(=O)NC(C)C)CC2)cccc1-c1cccc(OCCCN2CC[C@@H](O)C2)c1C` [Example 2109, (R)-2-(4-(3-((3′-(3-(3-hydroxypyrrolidin-1-yl)propoxy)-2,2′-dimethyl-[1,1′-biphenyl]-3-yl)oxy)propyl)piperazin-1-yl)-N-isopropylacetamide]: 90.1 to 1000 nM. The same measure, in the same setting: for `Cc1c(OCCCN(C)CCc2ccccc2)cccc1-c1cccc(OCCCN2CC[C@@H](O)C2)c1C` [Example 2110, (R)-1-(3-((2,2′-dimethyl-3′-(3-(methyl(phenethyl)amino)propoxy)-[1,1′-biphenyl]-3-yl)oxy)propyl)pyrrolidin-3-ol] the value was 90.1 to 1000 nM; for `COc1ccccc1N1CCN(CCCOc2cccc(-c3cccc(OCCCN4CC[C@@H](O)C4)c3C)c2C)CC1` [Example 2111, (R)-1-(3-((3′-(3-(4-(2-methoxyphenyl)piperazin-1-yl)propoxy)-2,2′-dimethyl-[1,1′-biphenyl]-3-yl)oxy)propyl)pyrrolidin-3-ol], 20.1 to 90 nM.

On to `Cc1c(OCCCNC[C@@H](O)c2ccccc2)cccc1-c1cccc(OCCCN2CC[C@@H](O)C2)c1C` [Example 2113, (R)-1-(3-((3′-(3-(((S)-2-hydroxy-2-phenylethyl)amino)propoxy)-2,2′-dimethyl-[1,1′-biphenyl]-3-yl)oxy)propyl)pyrrolidin-3-ol], for which the IC50 lay within 20.1 to 90 nM. Still for that read-out and setting: for `Cc1c(OCCCN2CCC[C@@H](O)C2)cccc1-c1cccc(OCCCN2CC[C@@H](O)C2)c1C` [Example 2114, (R)-1-(3-((3′-(3-((R)-3-hydroxypyrrolidin-1-yl)propoxy)-2,2′-dimethyl-[1,1′-biphenyl]-3-yl)oxy)propyl)piperidin-3-ol] the value was 90.1 to 1000 nM. On the same count and under the same terms, for `Cc1c(OCCCN2CC[C@@H](O)C2)cccc1-c1cccc(OCCCN2CCC[C@H](O)C2)c1C` [Example 2115, (S)-1-(3-((3′-(3-((R)-3-hydroxypyrrolidin-1-yl)propoxy)-2,2′-dimethyl-[1,1′-biphenyl]-3-yl)oxy)propyl)piperidin-3-ol] the value was 20.1 to 90 nM; for `Cc1c(OCCCN[C@@H](Cc2ccccn2)C(=O)O)cccc1-c1cccc(OCCCN2CC[C@@H](O)C2)c1C` [Example 2116, (S)-2-((3-((3′-(3-((R)-3-hydroxypyrrolidin-1-yl)propoxy)-2,2′-dimethyl-[1,1′-biphenyl]-3-yl)oxy)propyl)amino)-3-(pyridin-2-yl)propanoic acid], 90.1 to 1000 nM. Same read-out and setting: the same measure for `Cc1c(OCCCN[C@@H](Cc2cccnc2)C(=O)O)cccc1-c1cccc(OCCCN2CC[C@@H](O)C2)c1C` [Example 2117, (S)-2-((3-((3′-(3-((R)-3-hydroxypyrrolidin-1-yl)propoxy)-2,2′-dimethyl-[1,1′-biphenyl]-3-yl)oxy)propyl)amino)-3-(pyridin-3-yl)propanoic acid]: 90.1 to 1000 nM; for `Cc1c(OCCCNCCc2ccccn2)cccc1-c1cccc(OCCCN2CC[C@@H](O)C2)c1C` [Example 2118, (R)-1-(3-((2,2′-dimethyl-3′-(3-((2-(pyridin-2-yl)ethyl)amino)propoxy)-[1,1′-biphenyl]-3-yl)oxy)propyl)pyrrolidin-3-ol]: 20.1 to 90 nM. For the compound `Cc1c(COc2cc(OCc3cncc(C#N)c3)c(CN3CCCC[C@H]3C(=O)O)cc2Cl)cccc1-c1cccc(COc2cc(OCc3cncc(C#N)c3)c(CN3CCCC[C@H]3C(=O)O)cc2Cl)c1C` [Example 2119, (2S,2′S)-1,1′-(((((2,2′-dimethyl-[1,1′-biphenyl]-3,3′-diyl)bis(methylene))bis(oxy))bis(5-chloro-2-((5-cyanopyridin-3-yl)methoxy)-4,1-phenylene))bis(methylene))bis(piperidine-2-carboxylic acid)], the IC50 fell in the range of 0.04 to 20 nM. The same measure, in the same setting: for `Cc1c(COc2cc(OCc3cncc(C#N)c3)c(CO)cc2Cl)cccc1-c1cccc(COc2cc(OCc3cncc(C#N)c3)c(CN3CCCC[C@H]3C(=O)O)cc2Cl)c1C` [Example 2120, (S)-1-(5-chloro-4-((3′-((2-chloro-5-((5-cyanopyridin-3-yl)methoxy)-4-(hydroxymethyl)phenoxy)methyl)-2,2′-dimethyl-[1,1′-biphenyl]-3-yl)methoxy)-2-((5-cyanopyridin-3-yl)methoxy)benzyl)piperidine-2-carboxylic acid] the value was 0.04 to 20 nM; for `Cc1c(COc2cc(OCc3cncc(C#N)c3)c(CN[C@](C)(CO)C(=O)O)cc2Cl)cccc1-c1cccc(COc2cc(OCc3cncc(C#N)c3)c(CN[C@](C)(CO)C(=O)O)cc2Cl)c1C` [Example 2121, (2R,2′R)-2,2′-((((((2,2′-dimethyl-[1,1′-biphenyl]-3,3′-diyl)bis(methylene))bis(oxy))bis(5-chloro-2-((5-cyanopyridin-3-yl)methoxy)-4,1-phenylene))bis(methylene))bis(azanediyl))bis(3-hydroxy-2-methylpropanoic acid)], 0.04 to 20 nM.

On to `COc1cc(OCc2cccc(-c3cccc(COc4cc(OC)c(CNC(CO)CO)cc4Cl)c3C)c2C)c(Cl)cc1CNC(CO)CO` [Example 2122, 2,2′-((((((2,2′-dimethyl-[1,1′-biphenyl]-3,3′-diyl)bis(methylene))bis(oxy))bis(5-chloro-2-methoxy-4,1-phenylene))bis(methylene))bis(azanediyl))bis(propane-1,3-diol)], for which the IC50 is 0.04 to 20 nM. Same read-out and setting: the same measure for `Cc1c(COc2cc(OCc3cncc(C#N)c3)c(CN[C@@](C)(CO)C(=O)O)cc2Cl)cccc1-c1cccc(COc2cc(OCc3cncc(C#N)c3)c(CN[C@@](C)(CO)C(=O)O)cc2Cl)c1C` [Example 2123, (2S,2′S)-2,2′-((((((2,2′-dimethyl-[1,1′-biphenyl]-3,3′-diyl)bis(methylene))bis(oxy))bis(5-chloro-2-((5-cyanopyridin-3-yl)methoxy)-4,1-phenylene))bis(methylene))bis(azanediyl))bis(3-hydroxy-2-methylpropanoic acid)]: 0.04 to 20 nM; for `Cc1c(COc2cc(OCc3cncc(C#N)c3)c(CO)cc2Cl)cccc1-c1cccc(COc2cc(OCc3cncc(C#N)c3)c(CN[C@@](C)(CO)C(=O)O)cc2Cl)c1C` [Example 2124, (S)-2-((5-chloro-4-((3′-((2-chloro-5-((5-cyanopyridin-3-yl)methoxy)-4-(hydroxymethyl)phenoxy)methyl)-2,2′-dimethyl-[1,1′-biphenyl]-3-yl)methoxy)-2-((5-cyanopyridin-3-yl)methoxy)benzyl)amino)-3-hydroxy-2-methylpropanoic acid]: 0.04 to 20 nM. `Cc1c(COc2cc(OCc3cncc(C#N)c3)c(CN3CC[C@@H](O)C3)cc2Cl)cccc1-c1cccc(COc2cc(OCc3cncc(C#N)c3)c(CN3CC[C@@H](O)C3)cc2Cl)c1C` [Example 2125, 5,5′-((((((2,2′-dimethyl-[1,1′-biphenyl]-3,3′-diyl)bis(methylene))bis(oxy))bis(4-chloro-6-(((R)-3-hydroxypyrrolidin-1-yl)methyl)-3,1-phenylene))bis(oxy))bis(methylene))dinicotinonitrile]: the IC50 fell in the range of 0.04 to 20 nM.

The experiment is the same for the next values; noted with them: numeric IC50; PD-L1-His 10 nM, PD-1-Ig 20 nM; read-out: Range or IC50.
On to `Cc1c(OCCCNC[C@H](O)c2ccccc2)cccc1-c1cccc(OCCCN2CC[C@@H](O)C2)c1C` [Example 2112, (R)-1-(3-((3′-(3-(((R)-2-hydroxy-2-phenylethyl)amino)propoxy)-2,2′-dimethyl-[1,1′-biphenyl]-3-yl)oxy)propyl)pyrrolidin-3-ol], for which the IC50 amounted to 81 nM.
